Consider nine compounds from US12590123B2, “Compounds and methods for treating cancer, viral infections, and allergic conditions” (Washington University, priority 2019, dated 2026).

For one test, the target named is T1, activated hepsin (Homo sapiens, UniProt P05981).
T1 construct: purchased R&D Systems 4776-SE-010
As to the kind of experiment: Fluorescent kinetic enzyme assay of hepsin activity (Boc-QAR-AMC). It counts as biochemical.

Test [1] deals with VSVpp (SARS-2-S) entry into TMPRSS2-positive Calu-3 cells.
Another test deals with recombinant thrombin (Homo sapiens, UniProt P00734). As to the kind of experiment: Chromogenic kinetic enzyme assay of thrombin (S2238). The settings on record: Table 2; chromogenic assay; read-out: Thrombin* (IC50 nM). In kind it is biochemical. Here is the method: Using GraphPad Prism (GraphPad Software, San Diego, CA), a four-parameter curve fit was used to determine the inhibitor IC50s from a plot of the mean reaction velocity versus the inhibitor concentration. The IC50 values represent the average of three or more separate experimental determinations. Apparent Ki values were calculated from the IC50 values using the Cheng and Prusoff equation (Ki=IC50/(1+[S]/Km).
Using GraphPad Prism version 6.04 software program, (GraphPad Software, San Diego, CA, graphpad.com), a four parameter curve fit was used to determine the inhibitor IC50s from a plot of the mean reaction velocity versus the inhibitor concentration.
Fluorescent inhibitor and chromogenic proteolytic assays were performed for compounds prepared in Example 11 in general accordance with the procedures described in Example 9.

In a further test the target is T2, KLK5 (Homo sapiens, UniProt Q9Y337).
T2 construct: purchased R&D Systems 1108-SE-010
T2 sequence (Q9Y337 23-293): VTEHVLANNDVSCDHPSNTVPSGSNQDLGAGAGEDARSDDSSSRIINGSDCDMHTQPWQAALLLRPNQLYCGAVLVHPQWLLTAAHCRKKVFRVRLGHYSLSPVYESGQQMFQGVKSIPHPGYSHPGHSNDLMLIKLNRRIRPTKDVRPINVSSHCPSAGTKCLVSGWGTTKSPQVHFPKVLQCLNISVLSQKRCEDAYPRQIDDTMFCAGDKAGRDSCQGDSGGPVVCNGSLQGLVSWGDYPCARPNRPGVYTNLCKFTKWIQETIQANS
As to the kind of experiment: Fluorescent kinetic enzyme inhibitor assay of KLK5 (Boc-VPR-AMC). Conditions: Table 4; 7.5 nM KLK5, 100 μM substrate. In kind it is biochemical. The procedure:
Fluorescent Kinetic Enzyme Inhibitor Assay of KLK5: Inhibitors (11-pt serial dilutions, 0-20 μM final concentration in reaction) were serially diluted in DMSO (2% DMSO final concentration) and then mixed with KLK5 (#1108-SE-010, R&D Systems, Minneapolis, Minnesota) in black 384 well plates (Corning #3575. Corning, NY). The final assay concentration for KLK5 is 7.5 nM in TNC buffer (25 mM Tris, 150 mM NaCl, 5 mM CaCl2), 0.01% Triton X-100, pH 8). After thirty minutes incubation at room temperature, Boc-VPR-AMC substrate was added. The final substrate concentrations for assay is 100 μM. Changes in fluorescence (excitation at 380 nm and emission at 460 nm) were measured at room temperature over time in a Biotek Synergy 2 plate reader (Winnoski, VT). Using GraphPad Prism version 6.04 software program, (GraphPad Software, San Diego, CA, graphpad.com), a four parameter curve fit was used to determine the inhibitor IC50s from a plot of the mean reaction velocity versus the inhibitor concentration. The IC50 values represent the average of three or more separate experimental determinations.

Test [2] deals with T3, recombinant HGFA serine protease domain (Homo sapiens, UniProt Q04756).
T3 construct: His6 tag (N); seven amino acid spacer plus TEV cleavage site (N); made in house; host or cells: High 5 insect cells (baculovirus; Sf9 for virus production)
T3 sequence (Q04756 373-655): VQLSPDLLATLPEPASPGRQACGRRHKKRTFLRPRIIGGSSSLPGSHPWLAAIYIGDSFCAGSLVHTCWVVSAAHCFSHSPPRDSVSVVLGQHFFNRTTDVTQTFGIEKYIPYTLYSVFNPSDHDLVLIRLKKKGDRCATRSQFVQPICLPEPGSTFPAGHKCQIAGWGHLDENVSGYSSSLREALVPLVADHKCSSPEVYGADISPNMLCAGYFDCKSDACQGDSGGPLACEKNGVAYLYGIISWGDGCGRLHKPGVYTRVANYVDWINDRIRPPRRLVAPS
The test can be described thus: Fluorescent kinetic enzyme assay of HGFA activity (Boc-QLR-AMC). Conditions: Table 2; read-out: HGFA (IC50 nM). In kind it is biochemical. In short, it runs like this:
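His-tagged HGFA protease domain from baculovirus-infected High 5 cells, 6.25 nM in pH 8 Tris/NaCl/5 mM CaCl2/0.01% Triton X-100 with 2% DMSO. IC50 from four-parameter velocity fit (≥3 runs); apparent Ki by Cheng–Prusoff.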

The next test deals with T4, matriptase (Homo sapiens, UniProt Q9Y5Y6).
T4 construct: purchased R&D Systems 3946-SE-010
T4 sequence (Q9Y5Y6 615-855 limits assumed): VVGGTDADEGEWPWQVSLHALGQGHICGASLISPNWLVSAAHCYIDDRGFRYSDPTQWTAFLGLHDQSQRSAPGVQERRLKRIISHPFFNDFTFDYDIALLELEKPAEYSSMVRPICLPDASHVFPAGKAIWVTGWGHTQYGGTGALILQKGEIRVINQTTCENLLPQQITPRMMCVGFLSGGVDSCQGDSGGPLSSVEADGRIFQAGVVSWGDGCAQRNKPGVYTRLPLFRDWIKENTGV
As to the kind of experiment: Fluorescent kinetic enzyme assay of matriptase activity (Boc-QAR-AMC). It counts as biochemical. Conditions: Table 2; read-out: Matriptase (IC50 nM).

The next test deals with Factor Xa (Homo sapiens, UniProt P00742). As to the kind of experiment: Chromogenic kinetic enzyme assay of Factor Xa (S2222). In kind it is biochemical. Conditions: Table 2; chromogenic assay; read-out: Factor Xa* (IC50 nM).
Factor Xa, sequence (P00742 235-488 limits assumed): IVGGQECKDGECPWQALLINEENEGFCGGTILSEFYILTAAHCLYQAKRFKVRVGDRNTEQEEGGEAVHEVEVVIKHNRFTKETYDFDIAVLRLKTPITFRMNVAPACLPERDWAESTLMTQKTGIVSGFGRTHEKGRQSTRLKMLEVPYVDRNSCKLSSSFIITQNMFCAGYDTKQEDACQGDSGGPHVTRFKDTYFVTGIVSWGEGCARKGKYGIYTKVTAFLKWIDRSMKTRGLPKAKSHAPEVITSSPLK
Factor Xa, sequence (P00742 41-179 partner limits assumed): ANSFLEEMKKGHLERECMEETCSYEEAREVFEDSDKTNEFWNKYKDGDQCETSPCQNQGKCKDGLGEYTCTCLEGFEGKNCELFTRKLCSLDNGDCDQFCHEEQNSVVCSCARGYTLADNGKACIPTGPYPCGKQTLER
[3] abbreviates: Table 2, read-out: Hepsin (IC50 nM).

Like-named read-outs stand apart in the source and are kept apart here. Where only a bound is given, the exact number is not on record here.

T1 sequence (P05981 163-417 limits assumed): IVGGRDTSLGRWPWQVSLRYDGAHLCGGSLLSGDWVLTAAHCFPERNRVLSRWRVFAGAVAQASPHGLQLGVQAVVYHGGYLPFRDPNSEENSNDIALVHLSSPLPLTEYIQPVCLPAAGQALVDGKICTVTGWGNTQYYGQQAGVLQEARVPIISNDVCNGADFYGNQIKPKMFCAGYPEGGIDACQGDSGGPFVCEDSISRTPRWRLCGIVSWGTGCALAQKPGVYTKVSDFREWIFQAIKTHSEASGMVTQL
T1 sequence (P05981 1-162 partner limits assumed): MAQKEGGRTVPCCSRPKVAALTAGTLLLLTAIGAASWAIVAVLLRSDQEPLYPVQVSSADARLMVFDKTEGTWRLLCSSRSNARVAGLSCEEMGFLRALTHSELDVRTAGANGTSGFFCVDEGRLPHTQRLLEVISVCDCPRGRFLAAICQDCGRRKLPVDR
Procedure for activated hepsin: After thirty minutes of incubation at room temperature, Boc-QLR-AMC substrate was added (HGFA assay) or Boc-QAR-AMC substrate (matriptase, and hepsin assays). […] From a plot of the mean reaction velocity versus the inhibitor concentration, a non-linear four parameter curve fit was performed using GraphPad Prism (GraphPad Software, San Diego, CA) to determine inhibitor IC50s. The IC50 values were determined from the average of three or more separate experimental determinations. Apparent Ki values were calculated using the Cheng and Prusoff equation (Ki=IC50/(1+[S]/Km).
Inhibitors were pre-incubated with protease followed by the addition of the substrate. Inhibition of substrate proteolysis derived fluorescence was monitored kinetically over a period of one hour.

`CC(=O)N[C@H]1CC(=O)NCCCC[C@@H](C(=O)N[C@@H](CCCNC(=N)N)C(=O)c2nc3ccccc3s2)NC(=O)[C@H](CC(C)C)NC1=O` [VD2173, (3S,6S,14S)-6-acetamido-N—((S)-1-(benzo[d]thiazol-2-yl)-5-guanidino-1-oxopentan-2-yl)-3-isobutyl-2,5,8-trioxo-1,4,9-triazacyclotetradecane-14-carboxamide]: the IC50 (usually the concentration that gives 50% inhibition) stood at 8.4 nM on activated hepsin (setting [3]); 10 nM on activated hepsin (Table 6, read-out: Hepsin IC50); 699 nM on recombinant thrombin. Further, in test [1], a half-maximal response (EC50) required 104 nM.
Consider `CC(=O)N[C@@H](Cc1c[nH]c2ccccc12)C(=O)N[C@@H](Cc1ccccc1)C(=O)N[C@@H](CCCNC(=N)N)C(=O)c1nc2ccccc2s1` [AcWFRkbt, Ac-WFR-kbt], for which, on KLK5, the IC50 was over 20 µM.
Same read-out and setting: in the case of `CC(=O)N[C@H]1CC(=O)NCCCC[C@@H](C(=O)N[C@@H](CCCNC(=N)N)B(O)O)NC(=O)[C@H](CC(C)C)NC1=O` [MM2030] it was 18.1 µM.
As for `CC(=O)N[C@H]1Cc2ccc(cc2)OCCCC[C@@H](C(=O)N[C@@H](CCCNC(=N)N)C(=O)c2nc3ccccc3s2)NC(=O)[C@H](Cc2ccccc2)NC1=O` [VD4111, (7S,10S,13S)-13-acetamido-N—((S)-1-(benzo[d]thiazol-2-yl)-5-guanidino-1-oxopentan-2-yl)-10-benzyl-9,12-dioxo-2-oxa-8,11-diaza-1(1,4)-benzenacyclotetradecaphane-7-carboxamide], the IC50 turned out to be 11.9 nM in test [2], 0.331 nM at activated hepsin (setting [3]), 17 nM at matriptase and 0.647 µM on KLK5.
With `CC(=O)N[C@H]1Cc2ccc(cc2)OCCCC[C@@H](C(=O)N[C@@H](CCCNC(=N)N)C(=O)c2nc3ccccc3s2)NC(=O)[C@H](Cc2c[nH]c3ccccc23)NC1=O` [VD4158], the IC50 in test [2] is 85.2 nM; at matriptase, 56.8 nM; on KLK5, 3.56 µM.
`CC(=O)N[C@H]1Cc2ccc(cc2)OCCCC[C@@H](C(=O)N[C@@H](CCCNC(=N)N)C(=O)c2nc3ccccc3s2)NC(=O)[C@H](CC(C)C)NC1=O` [VD4072, (7S,10S,13S)-13-acetamido-N—((S)-1-(benzo[d]thiazol-2-yl)-5-guanidino-1-oxopentan-2-yl)-10-isobutyl-9,12-dioxo-2-oxa-8,11-diaza-1(1,4)-benzenacyclotetradecaphane-7-carboxamide]: the IC50 in test [2] is 7.99 nM; at activated hepsin (setting [3]), 0.175 nM; at matriptase, 7.76 nM; at KLK5 it was 5.23 µM.
With `CC(=O)N[C@@H](CC(C)C)C(=O)N[C@@H](CC(C)C)C(=O)N[C@H](C=O)CCCNC(=N)N` [Leupeptin, reference compound], the concentration for half-maximal inhibition (IC50) at KLK5 is over 20 µM.
Turning to `CC(=O)N[C@H]1Cc2ccc(cc2)OC/C=C\C[C@@H](C(=O)N[C@@H](CCCNC(=N)N)C(=O)c2nc3ccccc3s2)NC(=O)[C@H](CC(C)C)NC1=O` [VD4010, (7S,10S,13S,Z)-13-acetamido-N—((S)-1-(benzo[d]thiazol-2-yl)-5-guanidino-1-oxopentan-2-yl)-10-isobutyl-9,12-dioxo-2-oxa-8,11-diaza-1(1,4)-benzenacyclotetradecaphan-4-ene-7-carboxamide], the IC50 in test [2] came to 11.1 nM; at Factor Xa it was 122 nM; on activated hepsin (setting [3]) it was 0.141 nM; at matriptase, 3.24 nM; at KLK5, 1.83 µM.
`CC(=O)N[C@H]1Cc2cn(nn2)CCCC[C@H](C(=O)N[C@@H](CCCNC(=N)N)C(=O)c2nc3ccccc3s2)NC(=O)[C@H](CC(C)C)NC1=O` [VD4090, (3S,6S,9R,Z)-3-acetamido-N—((S)-1-(benzo[d]thiazol-2-yl)-5-guanidino-1-oxopentan-2-yl)-6-isobutyl-4,7-dioxo-11H-5,8-diaza-1(4,1)-triazolacyclotridecaphane-9-carboxamide]: the IC50 is 14.1 nM at activated hepsin (setting [3]), 39.1 nM at matriptase and 9.39 µM at KLK5.
